The source of these data is ChEMBL document CHEMBL1144202, “Triazole oxytocin antagonists: identification of aryl ether replacements for a biaryl substituent” (Bioorg Med Chem Lett, 2008).

One data set has as its target T1, Oxytocin receptor (Homo sapiens, UniProt P30559).
T1 sequence (P30559 whole entry): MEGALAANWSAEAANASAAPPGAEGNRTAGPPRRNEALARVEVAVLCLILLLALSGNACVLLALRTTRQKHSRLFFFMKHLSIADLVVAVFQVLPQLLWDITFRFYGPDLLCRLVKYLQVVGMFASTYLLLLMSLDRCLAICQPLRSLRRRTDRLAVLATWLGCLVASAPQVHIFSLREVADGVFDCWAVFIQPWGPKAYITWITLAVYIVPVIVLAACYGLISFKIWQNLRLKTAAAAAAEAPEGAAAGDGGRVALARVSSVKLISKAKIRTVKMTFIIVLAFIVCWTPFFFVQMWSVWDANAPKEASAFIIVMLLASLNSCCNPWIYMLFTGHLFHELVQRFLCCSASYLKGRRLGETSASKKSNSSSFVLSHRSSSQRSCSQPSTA
Briefly: Antagonist activity at human oxytocin receptor by cell based beta-lactamase reporter gene assay. In kind it is functional.

Data set [1] addresses T2, Vasopressin V1b receptor (Homo sapiens) (UniProt P47901).
T2 sequence (whole entry): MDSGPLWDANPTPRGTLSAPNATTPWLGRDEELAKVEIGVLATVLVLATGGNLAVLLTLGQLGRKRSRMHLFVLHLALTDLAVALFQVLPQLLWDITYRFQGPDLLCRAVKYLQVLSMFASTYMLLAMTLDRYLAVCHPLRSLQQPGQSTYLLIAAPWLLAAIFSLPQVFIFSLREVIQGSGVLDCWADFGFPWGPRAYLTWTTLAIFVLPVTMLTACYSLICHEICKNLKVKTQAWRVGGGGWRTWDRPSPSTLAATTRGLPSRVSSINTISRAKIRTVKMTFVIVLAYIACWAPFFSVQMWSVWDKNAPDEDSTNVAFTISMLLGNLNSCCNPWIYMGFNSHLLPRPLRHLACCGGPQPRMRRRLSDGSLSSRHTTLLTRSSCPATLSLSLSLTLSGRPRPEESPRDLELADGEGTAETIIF
The experiment in a line: Binding affinity to human vasopressin V1b receptor at 10 uM relative to control.

The next data set addresses Vasopressin V2 receptor (Homo sapiens, UniProt P30518). The experiment in a line: Antagonist activity at human vasopressin V2 receptor by cell based beta-lactamase reporter gene assay. In kind it is functional.
For a further data set, the target named is Vasopressin V1a receptor (Homo sapiens, UniProt P37288). The experiment in a line: Antagonist activity at human vasopressin V1a receptor by cell based beta-lactamase reporter gene assay. In kind it is functional.
For a further data set, the target named is T3, Vasopressin V1b receptor (Homo sapiens, UniProt P47901).
T3 sequence (P47901 whole entry): T2 sequence (whole entry)
The experiment in a line: Antagonist activity at human vasopressin V1b receptor by cell based beta-lactamase reporter gene assay. In kind it is functional.

Data set [2] can be described thus: Aqueous solubility at pH 7.4. The class given is physicochemical.
Data set [3] can be described thus: Intrinsic clearance in human liver microsomes. In kind it is ADME, Microsome.

Each structure is given as a SMILES string. Converted amounts (≈) assume the structure as drawn.

Sequence of Vasopressin V2 receptor (P30518 whole entry): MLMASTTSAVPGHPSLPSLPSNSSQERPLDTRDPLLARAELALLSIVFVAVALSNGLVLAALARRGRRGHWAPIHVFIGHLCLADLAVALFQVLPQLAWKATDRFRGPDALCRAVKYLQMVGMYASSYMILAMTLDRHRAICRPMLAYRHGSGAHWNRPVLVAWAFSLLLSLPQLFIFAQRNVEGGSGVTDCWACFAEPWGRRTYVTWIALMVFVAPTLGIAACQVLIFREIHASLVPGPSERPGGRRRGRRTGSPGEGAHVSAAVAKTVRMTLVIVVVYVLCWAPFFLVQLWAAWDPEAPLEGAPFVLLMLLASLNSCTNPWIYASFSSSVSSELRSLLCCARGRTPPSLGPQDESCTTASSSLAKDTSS
Sequence of Vasopressin V1a receptor (P37288 whole entry): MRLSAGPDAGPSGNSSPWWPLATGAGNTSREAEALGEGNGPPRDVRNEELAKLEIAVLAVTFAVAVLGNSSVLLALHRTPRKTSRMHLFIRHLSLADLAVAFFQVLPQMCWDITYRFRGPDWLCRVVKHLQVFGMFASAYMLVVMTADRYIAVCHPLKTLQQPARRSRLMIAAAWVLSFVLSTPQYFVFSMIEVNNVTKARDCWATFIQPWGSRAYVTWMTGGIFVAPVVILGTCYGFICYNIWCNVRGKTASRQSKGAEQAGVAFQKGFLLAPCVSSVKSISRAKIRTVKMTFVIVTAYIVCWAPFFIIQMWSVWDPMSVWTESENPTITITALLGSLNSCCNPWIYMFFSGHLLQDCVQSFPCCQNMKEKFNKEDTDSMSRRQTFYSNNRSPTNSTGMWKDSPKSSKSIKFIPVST

On to `CCOc1ccc(-c2nnc(COC)n2-c2ccc(OC)nc2)cc1Cl`, for which the Ki was 144 nM at Oxytocin receptor, above 10000 nM on Vasopressin V2 receptor and 2900 nM on Vasopressin V1a receptor. In data set [1], the Activity was below 20%.

Turning to `CCOc1ccc(-c2nnc(C)n2-c2ccc(OC)nc2)cc1C`, the Ki on Oxytocin receptor is 143 nM; on Vasopressin V2 receptor, above 10000 nM; at Vasopressin V1a receptor, above 10000 nM. The molecule further returned an Activity in data set [1] below 20%.

For `COc1ccc(-n2c(C)nnc2-c2cnc(-c3ccc(F)cc3C)cn2)cn1`, the Activity in data set [1] was below 20%.

Molecule `CCOc1ccc(S(=O)(=O)N(CC(=O)N/N=C2\C(=O)Nc3ccccc32)c2ccccc2)cc1` yielded a Ki on Oxytocin receptor of 6 nM. Moreover, in data set [1], the Activity was below 20%.

On to `CCOc1ccc(-c2nnc(Cn3nccn3)n2-c2ccc(OC)nc2)cc1C`, for which the inhibition constant (Ki) was 45 nM on Oxytocin receptor, 1000 nM at Vasopressin V2 receptor and 214 nM on Vasopressin V1a receptor. The molecule also came in with an Activity in data set [1] below 20%.

Regarding `CCOCc1nnc(-c2ccc(OCC)c(C)c2)n1-c1ccc(OC)nc1`, the inhibition constant (Ki) on Vasopressin V1b receptor was above 10000 nM; at Oxytocin receptor, 28 nM; on Vasopressin V2 receptor it was above 10000 nM; at Vasopressin V1a receptor, 594 nM. Besides, the solubility in data set [2] is 344 µg/mL (≈ 934 µM). Also, the Activity in data set [1] is below 20%. In data set [3], this molecule registered a microsomal CLint of 12 µL/min/mg.

In data set [2], `CCOc1ccc(-c2nnc(COC)n2-c2ccc(OC)nc2)cc1C` gave a solubility of 170 µg/mL (≈ 480 µM). The Ki on Oxytocin receptor was 102 nM; on Vasopressin V2 receptor, above 10000 nM; on Vasopressin V1a receptor it was 3800 nM. This molecule also displayed an Activity in data set [1] below 20%.

Turning to `CCOc1ccc(-c2nnc(COC)n2-c2ccc(OC)nc2)cc1C(F)(F)F`, the results for the inhibition constant (Ki) on Oxytocin receptor, on Vasopressin V2 receptor and at Vasopressin V1a receptor were 190 nM, above 10000 nM and above 10000 nM, respectively. Also, in data set [1], the Activity was below 20%.

Turning to `CCOc1ccc(-c2nnc(COCCOC)n2-c2ccc(OC)nc2)cc1C`, the inhibition constant (Ki) on Oxytocin receptor amounted to 19 nM; at Vasopressin V2 receptor, 6400 nM; at Vasopressin V1a receptor, 1700 nM. Also, the Activity in data set [1] is below 20%.

For the molecule `COCc1nnc(-c2cnc(-c3ccc(C#N)cc3C)cn2)n1-c1ccc(OC)nc1`, the Activity in data set [1] is below 20%.
